# Source: patent US20260217706A1, “HETEROCYCLIC COMPOUNDS, PREPARATION METHOD THEREFOR AND USE THEREOF” (GUANGZHOU YUFAN NANTU BIOTECHNOLOGIES CO., LTD, priority 2023, published 2026)
# Assays:
# [1] = target: CBL-B protein (Homo sapiens, UniProt Q13191); assay: CBL-B binding experiment (Streptavidin-Tb cryptate / Ligand L1 displacement); conditions: 8 nM CBL-B protein, 25° C., 60 minutes; Ki=Relative IC50/2
# In short: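 Compounds in a 10-point DMSO series met 8 nM CBL-B protein in HEPES pH 7.5/NaCl/Triton/TCEP/BSA buffer at 25° C. for 60 min. A further 60 min at room temperature preceded the luminescence read, normalised to no-protein and DMSO wells. Ki was taken as relative IC50 divided by 2.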
# [2] = system: anti-CD3 activated human PBMCs; assay: Effect of compounds on the level of IL-2 secretion by anti-CD3 activated human PBMCs (IL-2 ELISA); type: cell-based; conditions: compound concentration at which fold change in IL-2 = 5; hPBMCs, CD3 antibody 2 μg/mL, 48 h, compound from 3 μM
# Procedure: 2. Inoculate the resuspended cells into a 96-well cell culture plate at 200 ul/well of cell suspension, and incubate in a 37° C. cell incubator for 1 h;
# 3. Adjust the compound concentration with DMSO, starting at a final concentration of 3 μM, and perform a 3-fold dilution sequentially for 10 concentration gradients, with an additional DMSO control well set up; and
# 4. Adjust the CD3 antibody to an appropriate concentration to achieve a final concentration of 2 μg/mL, mix thoroughly, and incubate in a 37° C. cell incubator for 48h.
# 5. After 48 h, centrifuge at 1500 rpm for 5 min to collect the supernatant of the culture medium for the human IL-2 ELISA test.
# The OD values obtained from the ELISA test are converted into the fold change (FC) in IL-2 concentration. […] The EC50 is calculated using GraphPad Prism. When the fold change=5, the corresponding compound concentration is CFC=5 (in nM).
# CBL-B protein, sequence (Q13191 whole entry): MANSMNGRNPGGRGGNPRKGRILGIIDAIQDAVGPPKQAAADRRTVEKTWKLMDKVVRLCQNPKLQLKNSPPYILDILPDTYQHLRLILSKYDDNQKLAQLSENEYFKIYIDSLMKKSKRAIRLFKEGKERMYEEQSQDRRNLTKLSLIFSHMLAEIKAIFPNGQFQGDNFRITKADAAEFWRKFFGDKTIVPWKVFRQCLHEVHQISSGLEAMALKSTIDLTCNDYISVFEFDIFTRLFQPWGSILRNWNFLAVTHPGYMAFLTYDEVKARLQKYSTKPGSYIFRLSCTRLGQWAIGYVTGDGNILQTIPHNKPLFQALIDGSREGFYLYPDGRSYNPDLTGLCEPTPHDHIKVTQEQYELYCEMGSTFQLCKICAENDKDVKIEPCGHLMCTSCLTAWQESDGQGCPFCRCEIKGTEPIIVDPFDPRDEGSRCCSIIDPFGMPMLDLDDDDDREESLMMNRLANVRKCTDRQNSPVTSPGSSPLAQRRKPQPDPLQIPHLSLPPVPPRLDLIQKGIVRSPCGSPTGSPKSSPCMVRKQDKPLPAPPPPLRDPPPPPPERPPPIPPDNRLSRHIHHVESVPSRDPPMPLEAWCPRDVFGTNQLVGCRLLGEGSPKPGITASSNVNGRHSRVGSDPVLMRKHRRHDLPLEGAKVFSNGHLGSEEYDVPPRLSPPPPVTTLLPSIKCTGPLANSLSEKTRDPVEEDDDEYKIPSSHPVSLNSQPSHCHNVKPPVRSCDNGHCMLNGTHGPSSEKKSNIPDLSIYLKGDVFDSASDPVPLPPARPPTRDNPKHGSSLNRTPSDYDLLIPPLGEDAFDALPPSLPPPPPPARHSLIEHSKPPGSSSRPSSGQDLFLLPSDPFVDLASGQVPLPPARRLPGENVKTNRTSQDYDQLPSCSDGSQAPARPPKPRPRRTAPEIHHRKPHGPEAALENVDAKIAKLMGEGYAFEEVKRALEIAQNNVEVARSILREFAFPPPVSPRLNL
Ki [1],Compound,IL-2 CFC=5/nM [2]
< 50 nM,"Cn1cnnc1C1(c2cccc(-n3cc(C(F)(F)F)c4cc(CNC5(C)CCC5)[nH]c4c3=O)c2)CCC1 [Compound T009, 2-[[(1-methylcyclobutyl)amino]methyl]-6-[3-[1-(4-methyl-1,2,4-triazol-3-yl)cyclobutyl]phenyl]-4-(trifluoromethyl)-1H-pyrrolo[2,3-c]pyridin-7-one]",<500 nM
< 50 nM,"Cn1cnnc1C1(c2cccc(-n3cc(C(F)(F)F)c4cc(CN5CCC6(CC6)C5)[nH]c4c3=O)c2)CCC1 [Compound T023, 2-(5-azaspiro[2.4]heptan-5-ylmethyl)-6-[3-[1-(4-methyl-1,2,4-triazol-3-yl)cyclobutyl]phenyl]-4-(trifluoromethyl)-1H-pyrrolo[2,3-c]pyridin-7-one]",<500 nM
< 50 nM,"Cn1cnnc1C1(c2cccc(-n3cc(C(F)(F)F)c4cc(CN5CC[C@H]6C[C@H]6C5)[nH]c4c3=O)c2)CCC1 [Compound T024, 2-[[(1R,6R)-3-azabicyclo[4.1.0]heptan-3-yl]methyl]-6-[3-[1-(4-methyl-1,2,4-triazol-3-yl)cyclobutyl]phenyl]-4-(trifluoromethyl)-1H-pyrrolo[2,3-c]pyridin-7-one]",<500 nM
< 50 nM,"Cn1cnnc1C1(c2cccc(-n3cc(C(F)(F)F)c4cc(CN5CC[C@@H]6C[C@@H]6C5)[nH]c4c3=O)c2)CCC1 [Compound T025, 2-[[(1 S,6S)-3-azabicyclo[4.1.0]heptan-3-yl]methyl]-6-[3-[1-(4-methyl-1,2,4-triazol-3-yl)cyclobutyl]phenyl]-4-(trifluoromethyl)-1H-pyrrolo[2,3-c]pyridin-7-one]",<500 nM
< 50 nM,"Cn1cnnc1C1(c2cccc(-n3cc(C(F)(F)F)c4cc(CN5CCC[C@H]6C[C@H]65)[nH]c4c3=O)c2)CCC1 [Compound T026, 2-(((1R,6S)-2-azabicyclo [4.1.0]heptan-2-yl)methyl)-6-(3-(1-(4-methyl-4H-1,2,4-triazol-3-yl)cyclobutyl)phenyl)-4-(trifluoromethyl)-1,6-dihydro-7H-pyrrolo[2,3-c]pyridin-7-one]",<500 nM
< 50 nM,"Cn1cnnc1C1(c2cccc(-n3cc(C(F)(F)F)c4cc(CN5CCC[C@@H]6C[C@@H]65)[nH]c4c3=O)c2)CCC1 [Compound T027, 2-(((1 S,6R)-2-azabicyclo [4.1.0]heptan-2-yl)methyl)-6-(3-(1-(4-methyl-4H-1,2,4-triazol-3-yl)cyclobutyl)phenyl)-4-(trifluoromethyl)-1,6-dihydro-7H-pyrrolo[2,3-c]pyridin-7-one]",<500 nM
< 50 nM,"C[C@H]1CCCN(Cc2cc3c(C(F)(F)F)cn(-c4cccc(C5(c6nncn6C)CCC5)c4)c(=O)c3[nH]2)C1 [Compound T033, 2-[[(3S)-3-methyl-1-piperidyl]methyl]-6-[3-[1-(4-methyl-1,2,4-triazol-3-yl)cyclobutyl]phenyl]-4-(trifluoromethyl)-1H-pyrrolo[2,3-c]pyridin-7-one]",<500 nM
< 50 nM,"Cn1cnnc1C1(c2cccc(-n3cc(C(F)(F)F)c4cc(CNCCC5CCC5)[nH]c4c3=O)c2)CCC1 [Compound T034, 2-(((2-cyclobutylethyl)amino)methyl)-6-(3-(1-(4-methyl-4H-1,2,4-triazol-3-yl)cyclobutyl)phenyl)-4-(trifluoromethyl)-1,6-dihydro-7H-pyrrolo[2,3-c]pyridin-7-one]",<500 nM
< 50 nM,"Cn1cnnc1C1(c2cccc(-n3cc(C(F)(F)F)c4cc(CN5CCC[C@H](O)C5)[nH]c4c3=O)c2)CCC1 [Compound T038, 2-[[(3S)-3-hydroxy-1-piperidyl]methyl]-6-[3-[1-(4-methyl-1,2,4-triazol-3-yl)cyclobutyl]phenyl]-4-(trifluoromethyl)-1H-pyrrolo[2,3-c]pyridin-7-one]",<500 nM

# Second part, the compound before the results:
Compound,Ki [1],IL-2 CFC=5/nM [2]
"C[C@H]1CCCN(Cc2cc3c(C4CC4)cn(-c4cccc(C5(Cc6nncn6C)CCC5)c4)c(=O)c3[nH]2)C1 [Compound T010, 4-cyclopropyl-2-[[(3S)-3-methyl-1-piperidyl]methyl]-6-[3-[1-[(4-methyl-1,2,4-triazol-3-yl)methyl]cyclobutyl]phenyl]-1H-pyrrolo[2,3-c]pyridin-7-one]",< 50 nM,<500 nM
"C[C@H]1CCCN(Cc2cc3c(C4CC4)cn(-c4cccc([C@@H](c5nncn5C)C5CCC5)c4)c(=O)c3[nH]2)C1 [Compound T013, 6-(3-((S)-cyclobutyl(4-methyl-4H-1,2,4-triazol-3-yl)methyl)phenyl)-4-cyclopropyl-2-(((S)-3-methylpiperidin-1-yl)methyl)-1,6-dihydro-7H-pyrrolo[2,3-c]pyridin-7-one]",< 50 nM,<500 nM
"C[C@H]1CCCN(Cc2cc3c(C(F)(F)F)cn(-c4cccc(C(C)(C)c5nncn5C)c4)c(=O)c3[nH]2)C1 [Compound T017, 6-[3-[1-methyl-1-(4-methyl-1,2,4-triazol-3-yl)ethyl]phenyl]-2-[[(3S)-3-methyl-1-piperidyl]methyl]-4-(trifluoromethyl)-1H-pyrrolo[2,3-c]pyridin-7-one]",< 50 nM,<500 nM
"CCN(CC)Cc1cc2c(C(F)(F)F)cn(-c3cccc([C@]4(c5nncn5C)C[C@@H](C)C4)c3)c(=O)c2[nH]1 [Compound T018, 2-((diethylamino)methyl)-6-(3-((1s,3s)-3-methyl-1-(4-methyl-4H-1,2,4-triazol-3-yl)cyclobutyl)phenyl)-4-(trifluoromethyl)-1,6-dihydro-7H-pyrrolo[2,3-c]pyridin-7-one]",< 50 nM,<500 nM
"CCN(Cc1cc2c(C(F)(F)F)cn(-c3cccc(C4(c5nncn5C)CCC4)c3)c(=O)c2[nH]1)C(C)C [Compound T019, 2-[[ethyl(isopropyl)amino]methyl]-6-[3-[1-(4-methyl-1,2,4-triazol-3-yl)cyclobutyl]phenyl]-4-(trifluoromethyl)-1H-pyrrolo[2,3-c]pyridin-7-one]",< 50 nM,<500 nM
"Cn1cnnc1[C@]1(c2cccc(-n3cc(C(F)(F)F)c4cc(CN5CC6CC6C5)[nH]c4c3=O)c2)C[C@H](C)C1 (stereo partly drawn) [Compound T028, 2-((3-azabicyclo[3.1.0]hexan-3-yl)methyl)-6-(3-((1s,3s)-3-methyl-1-(4-methyl-4H-1,2,4-triazol-3-yl)cyclobutyl)phenyl)-4-(trifluoromethyl)-1,6-dihydro-7H-pyrrolo[2,3-c]pyridin-7-one]",< 50 nM,<500 nM
"CCCN(Cc1cc2c(C(F)(F)F)cn(-c3cccc([C@]4(c5nncn5C)C[C@@H](C)C4)c3)c(=O)c2[nH]1)C(C)C [Compound T029, 2-((isopropyl(propyl)amino)methyl)-6-(3-((1s,3s)-3-methyl-1-(4-methyl-4H-1,2,4-triazol-3-yl)cyclobutyl)phenyl)-4-(trifluoromethyl)-1,6-dihydro-7H-pyrrolo[2,3-c]pyridin-7-one]",< 50 nM,<500 nM
"C[C@H]1CCCN(Cc2cc3c(C4CC4)cn(-c4cccc(C5(c6nncn6C)CC6(CC6)C5)c4)c(=O)c3[nH]2)C1 [Compound T030, 4-cyclopropyl-2-[[(3S)-3-methyl-1-piperidyl]methyl]-6-[3-[5-(4-methyl-1,2,4-triazol-3-yl)spiro[2.3]hexan-5-yl]phenyl]-1H-pyrrolo[2,3-c]pyridin-7-one]",< 50 nM,<500 nM
"Cn1cnnc1[C@]1(c2cccc(-n3cc(C(F)(F)F)c4cc(CNC5(C)CCC5)[nH]c4c3=O)c2)C[C@H](C)C1 [Compound T035, 6-(3-((1s,3s)-3-methyl-1-(4-methyl-4H-1,2,4-triazol-3-yl)cyclobutyl)phenyl)-2-(((1-methylcyclobutyl)amino)methyl)-4-(trifluoromethyl)-1,6-dihydro-7H-pyrrolo[2,3-c]pyridin-7-one]",< 50 nM,<500 nM
"C[C@H]1CCCN(Cc2cc3c(C4CC4)cn(-c4cccc([C@]5(Cc6nncn6C)C[C@H](C)C5)c4)c(=O)c3[nH]2)C1 [Compound T037, 4-cyclopropyl-6-(3-((1s,3R)-3-methyl-1-((4-methyl-4H-1,2,4-triazol-3-yl)methyl)cyclobutyl)phenyl)-2-(((S)-3-methylpiperidin-1-yl)methyl)-1,6-dihydro-7H-pyrrolo[2,3-c]pyridin-7-one]",< 50 nM,<500 nM
"CCC(C)CN(C)Cc1cc2c(C(F)(F)F)cn(-c3cccc(C4(c5nncn5C)CCC4)c3)c(=O)c2[nH]1 (stereo not drawn) [Compound T040, 2-[[methyl(2-methylbutyl)amino]methyl]-6-[3-[1-(4-methyl-1,2,4-triazol-3-yl)cyclobutyl]phenyl]-4-(trifluoromethyl)-1H-pyrrolo[2,3-c]pyridin-7-one]",< 50 nM,<500 nM
"CCN(Cc1cc2c(C(F)(F)F)cn(-c3cccc(C4(c5nncn5C)CCC4)c3)c(=O)c2[nH]1)CC(C)C [Compound T041, 2-[[ethyl(isobutyl)amino]methyl]-6-[3-[1-(4-methyl-1,2,4-triazol-3-yl)cyclobutyl]phenyl]-4-(trifluoromethyl)-1H-pyrrolo[2,3-c]pyridin-7-one]",< 50 nM,<500 nM
